US10597388B2, “Pyridazinone herbicides” (FMC CORPORATION, priority 2014, dated 2020)

Tests used:
Test in all cases: Test D controlled growth environment herbicide test, pre- and postemergence
Assay type in all cases: in vivo
[1] = tested on: barley, spring (spring barley, Hordeum vulgare)
Method in brief: (§1)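 Pre-emergence: seeds sown in silt loam soil were sprayed with compound in a non-phytotoxic solvent mix containing surfactant. Post-emergence: plants at 2 to 18 cm (1- to 4-leaf stage) in peat moss/vermiculite medium got the same formulation. Visual 0–100 rating versus controls after 14 to 21 d.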

[2] = tested on: blackgrass (Alopecurus myosuroides)
Method in brief: as §1

[3] = tested on: bluegrass (annual bluegrass, Poa annua)
Method in brief: as §1

[4] = tested on: chamomile (scentless chamomile, Matricaria inodora)
Method in brief: as §1

[5] = tested on: field poppy (Papaver rhoeas)
Method in brief: as §1

[6] = tested on: foxtail, green (green foxtail, Setaria viridis)
Method in brief: as §1

[7] = tested on: lambsquarters (Chenopodium album)
Method in brief: as §1

[8] = tested on: mustard, wild (wild mustard, Sinapis arvensis)
Method in brief: as §1

[9] = tested on: oilseed rape (Brassica napus)
Method in brief: as §1

[10] = tested on: ryegrass, Italian (Italian ryegrass, Lolium multiflorum)
Method in brief: as §1

[11] = tested on: speedwell (bird's-eye speedwell, Veronica persica)
Method in brief: as §1

[12] = tested on: wheat, spring (spring wheat, Triticum aestivum)
Method in brief: as §1

[13] = tested on: wheat, winter (winter wheat, Triticum aestivum)
Method in brief: as §1

[14] = Postemergence, 31 g ai/ha, scale 0 to 100 (0 no effect, 100 complete control)
[15] = Postemergence, 125 g ai/ha, visual rating on scale 0 (no effect) to 100 (complete control), 14 to 21 d
[16] = Postemergence, 250 g ai/ha, scale 0 to 100 (0 no effect, 100 complete control)
[17] = Preemergence, 62 g ai/ha, scale 0 to 100 (0 no effect, 100 complete control)
[18] = Preemergence, 125 g ai/ha, scale 0 to 100 (0 no effect, 100 complete control)
[19] = Preemergence, 250 g ai/ha, scale 0 to 100 (0 no effect, 100 complete control)
[20] = postemergence, 62 g ai/ha, scale 0 to 100, 0 no effect, 100 complete control

CCOC(=O)Oc1c(C)nn(C)c(=O)c1-c1c(C)sc2ccc(C)cc12 [Compound 82]
Barley, Spring plant response rating [1, 14]: 0
Plant response rating, Barley, Spring [1, 15]: 0
Plant response rating, Barley, Spring [1, 16]: 5
Plant response rating (scale of 0 to 100), Barley, Spring ([1]; Preemergence, 31 g ai/ha): 0
Plant response rating, Barley, Spring [1, 17]: 0
Plant response rating, Barley, Spring [1, 18]: 0
Plant response rating, Barley, Spring [1, 19]: 10
Plant response rating, Barley, Spring [1, 20]: 5
Blackgrass plant response rating [2, 14]: 45
Plant response rating, Blackgrass [2, 15]: 75
Plant response rating, Blackgrass [2, 16]: 80
Plant response rating (scale of 0 to 100), Blackgrass ([2]; Preemergence, 31 g ai/ha): 70
Plant response rating, Blackgrass [2, 17]: 75
Plant response rating, Blackgrass [2, 18]: 75
Plant response rating, Blackgrass [2, 19]: 80
Plant response rating, Blackgrass [2, 20]: 70
Bluegrass plant response rating [3, 14]: 10
Plant response rating, Bluegrass [3, 15]: 30
Plant response rating, Bluegrass [3, 16]: 35
Plant response rating (scale of 0 to 100), Bluegrass ([3]; Preemergence, 31 g ai/ha): 15
Plant response rating, Bluegrass [3, 17]: 45
Plant response rating, Bluegrass [3, 18]: 65
Plant response rating, Bluegrass [3, 19]: 80
Plant response rating, Bluegrass [3, 20]: 20
Chamomile plant response rating [4, 14]: 90
Plant response rating, Chamomile [4, 15]: 100
Plant response rating, Chamomile [4, 16]: 100
Plant response rating (scale of 0 to 100), Chamomile ([4]; Preemergence, 31 g ai/ha): 100
Plant response rating (scale of 0 to 100), Chamomile ([4]; Preemergence, 62 g ai/ha): 100
Plant response rating, Chamomile [4, 18]: 100
Plant response rating, Chamomile [4, 19]: 100
Plant response rating, Chamomile [4, 20]: 100
Field Poppy plant response rating [5, 14]: 70
Plant response rating, Field Poppy [5, 15]: 95
Plant response rating, Field Poppy [5, 16]: 100
Plant response rating (scale of 0 to 100), Field Poppy ([5]; Preemergence, 31 g ai/ha): 95
Plant response rating (scale of 0 to 100), Field Poppy ([5]; Preemergence, 62 g ai/ha): 100
Plant response rating, Field Poppy [5, 18]: 100
Plant response rating, Field Poppy [5, 19]: 100
Plant response rating, Field Poppy [5, 20]: 85
Foxtail, Green plant response rating [6, 14]: 75
Plant response rating, Foxtail, Green [6, 15]: 85
Plant response rating, Foxtail, Green [6, 16]: 90
Plant response rating (scale of 0 to 100), Foxtail, Green ([6]; Preemergence, 31 g ai/ha): 35
Plant response rating (scale of 0 to 100), Foxtail, Green ([6]; Preemergence, 62 g ai/ha): 75
Plant response rating, Foxtail, Green [6, 18]: 90
Plant response rating, Foxtail, Green [6, 19]: 85
Plant response rating, Foxtail, Green [6, 20]: 80
Lambsquarters plant response rating [7, 14]: 95
Plant response rating, Lambsquarters [7, 15]: 95
Plant response rating, Lambsquarters [7, 16]: 100
Plant response rating (scale of 0 to 100), Lambsquarters ([7]; Preemergence, 31 g ai/ha): 75
Plant response rating (scale of 0 to 100), Lambsquarters ([7]; Preemergence, 62 g ai/ha): 95
Plant response rating, Lambsquarters [7, 18]: 100
Plant response rating, Lambsquarters [7, 19]: 100
Plant response rating, Lambsquarters [7, 20]: 95
Mustard, Wild plant response rating [8, 14]: 25
Plant response rating, Mustard, Wild [8, 15]: 40
Plant response rating, Mustard, Wild [8, 16]: 70
Plant response rating (scale of 0 to 100), Mustard, Wild ([8]; Preemergence, 31 g ai/ha): 0
Plant response rating (scale of 0 to 100), Mustard, Wild ([8]; Preemergence, 62 g ai/ha): 0
Plant response rating, Mustard, Wild [8, 18]: 25
Plant response rating, Mustard, Wild [8, 19]: 15
Plant response rating, Mustard, Wild [8, 20]: 35
Oilseed Rape plant response rating [9, 14]: 25
Plant response rating, Oilseed Rape [9, 15]: 60
Plant response rating, Oilseed Rape [9, 16]: 80
Plant response rating (scale of 0 to 100), Oilseed Rape ([9]; Preemergence, 31 g ai/ha): 30
Plant response rating (scale of 0 to 100), Oilseed Rape ([9]; Preemergence, 62 g ai/ha): 35
Plant response rating, Oilseed Rape [9, 18]: 35
Plant response rating, Oilseed Rape [9, 19]: 60
Plant response rating, Oilseed Rape [9, 20]: 45
Ryegrass, Italian plant response rating [10, 14]: 85
Plant response rating, Ryegrass, Italian [10, 15]: 90
Plant response rating, Ryegrass, Italian [10, 16]: 90
Plant response rating (scale of 0 to 100), Ryegrass, Italian ([10]; Preemergence, 31 g ai/ha): 75
Plant response rating (scale of 0 to 100), Ryegrass, Italian ([10]; Preemergence, 62 g ai/ha): 80
Plant response rating, Ryegrass, Italian [10, 18]: 90
Plant response rating, Ryegrass, Italian [10, 19]: 95
Plant response rating, Ryegrass, Italian [10, 20]: 85
Speedwell plant response rating [11, 14]: 70
Plant response rating, Speedwell [11, 15]: 85
Plant response rating, Speedwell [11, 16]: 85
Plant response rating (scale of 0 to 100), Speedwell ([11]; Preemergence, 31 g ai/ha): 75
Plant response rating (scale of 0 to 100), Speedwell ([11]; Preemergence, 62 g ai/ha): 75
Plant response rating, Speedwell [11, 18]: 100
Plant response rating, Speedwell [11, 19]: 100
Plant response rating, Speedwell [11, 20]: 75
Wheat, Spring plant response rating [12, 14]: 0
Plant response rating, Wheat, Spring [12, 15]: 0
Plant response rating, Wheat, Spring [12, 16]: 5
Plant response rating (scale of 0 to 100), Wheat, Spring ([12]; Preemergence, 31 g ai/ha): 0
Plant response rating (scale of 0 to 100), Wheat, Spring ([12]; Preemergence, 62 g ai/ha): 0
Plant response rating, Wheat, Spring [12, 18]: 15
Plant response rating, Wheat, Spring [12, 19]: 40
Plant response rating, Wheat, Spring [12, 20]: 0
Wheat, Winter plant response rating [13, 14]: 0
Plant response rating, Wheat, Winter [13, 15]: 0
Plant response rating, Wheat, Winter [13, 16]: 0
Plant response rating (scale of 0 to 100), Wheat, Winter ([13]; Preemergence, 31 g ai/ha): 0
Plant response rating (scale of 0 to 100), Wheat, Winter ([13]; Preemergence, 62 g ai/ha): 0
Plant response rating, Wheat, Winter [13, 18]: 0
Plant response rating, Wheat, Winter [13, 19]: 10
Plant response rating, Wheat, Winter [13, 20]: 0
